Common to all, as to test: microbe, parasite or virus in culture
Assay type in all cases: cell-based, HIV-1

In assay [1] the test system is NLRepRlucP373S recombinant wild type (WT) virus. The following applies: Human immunodeficiency virus 1, MT2, read-out: WT EC50. The essentials: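 MT-2 cells infected with NLRepRlucP373S Renilla luciferase reporter virus (NL4-3, Gag P373S), inocula normalized by luciferase signal; compounds 3-fold serially diluted, 1% DMSO final. Virus yield read by Renilla luciferase after 4-5 days at 37 °C. EC50/EC90 from median effect equation; background = signal at NFV 3 μM.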

The test system of assay [2] is gag V370A/ΔT371 virus. The following applies: Human immunodeficiency virus 1, MT2, read-out: V370A/ΔT371 EC50. The essentials:
(§1)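 Multiple-cycle assay in MT-2 cells infected with Renilla luciferase NL4-3 (Gag P373S background) carrying site-directed Gag A364V or V370A/ΔT371 changes, inocula normalized by luciferase signal. 10,000 cells/well, 3-fold compound dilutions, 1% DMSO, 4–5 days at 37°C; yield read as Renilla luciferase.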

For assay [3], the system named is A364V site directed mutant virus. The settings on record: Human immunodeficiency virus 1, MT2, read-out: A364V EC50. The essentials:
as §1

The test system of assay [4] is T332S/V362I/Pr R41G virus. The following applies: Human immunodeficiency virus 1, MT2, read-out: T332S/V362I/pr41G EC50. The method, boiled down: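 Renilla luciferase NL4-3 reporter virus (Gag P373S background) carrying Gag T332S/V362I plus protease R41G, inoculum normalized by luciferase signal, infected MT-2 cells (10,000/well). Compounds 3-fold diluted, 1% DMSO final. After 4–5 days at 37 °C, virus yield measured as Renilla luciferase activity in a multiple-cycle assay.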

Each structure is given as a SMILES string. Bounds are passed on as bounds.

With `C=C(C)[C@@H]1CC[C@]2(NCCN3CCS(=O)(=O)CC3)CC[C@]3(C)[C@H](CC[C@@H]4[C@@]5(C)CC=C(C6=CC[C@@](COc7cccc(OC)n7)(C(=O)O)CC6)C(C)(C)[C@@H]5CC[C@]43C)[C@@H]12` [Example 28, (S)-4-((1R,3aS,5aR,5bR,7aR,11aS,11bR,13aR,13bR)-3a-((2-(1,1-dioxidothiomorpholino)ethyl)amino)-5a,5b,8,8,11a-pentamethyl-1-(prop-1-en-2-yl)-2,3,3a,4,5,5a,5b,6,7,7a,8,11,11a,11 b,12,13,13a,13b-octadecahydro-1H-cyclopenta[a]chrysen-9-yl)-1-(((6-methoxypyridin-2-yl)oxy)methyl)cyclohex-3-ene-1-carboxylic acid], the EC50 is 3 nM in assay [1], 21 nM in assay [2], 21 nM in assay [3] and 21 nM in assay [4].
Turning to `C=C(C)[C@@H]1CC[C@]2(NCCN3CCS(=O)(=O)CC3)CC[C@]3(C)[C@H](CC[C@@H]4[C@@]5(C)CC=C(C6=CC[C@@](COc7cccc(F)n7)(C(=O)O)CC6)C(C)(C)[C@@H]5CC[C@]43C)[C@@H]12` [Example 29, (S)-4-((1R,3aS,5aR,5bR,7aR,11aS,11bR,13aR,13bR)-3a-((2-(1,1-dioxidothiomorpholino)ethyl)amino)-5a,5b,8,8,11a-pentamethyl-1-(prop-1-en-2-yl)-2,3,3a,4,5,5a,5b,6,7,7a,8,11,11a,11 b,12,13,13a,13b-octadecahydro-1H-cyclopenta[a]chrysen-9-yl)-1-(((6-fluoropyridin-2-yl)oxy)methyl)cyclohex-3-ene-1-carboxylic acid], the EC50 in assay [1] is 5 nM; in assay [2], 21 nM; in assay [3], 5 nM; in assay [4], 21 nM.
On to `C=C(C)[C@@H]1CC[C@]2(NCCN3CCS(=O)(=O)CC3)CC[C@]3(C)[C@H](CC[C@@H]4[C@@]5(C)CC=C(C6=CC[C@@](COc7cc(C(N)=O)ccn7)(C(=O)O)CC6)C(C)(C)[C@@H]5CC[C@]43C)[C@@H]12` [Example 30, (S)-1-(((4-carbamoylpyridin-2-yl)oxy)methyl)-4-((1R,3aS,5aR,5bR,7aR,11aS,11bR,13aR,13bR)-3a-((2-(1,1-dioxidothiomorpholino)ethyl)amino)-5a,5b,8,8,11a-pentamethyl-1-(prop-1-en-2-yl)-2,3,3a,4,5,5a,5b,6,7,7a,8,11,11a,11b,12,13,13a,13b-octadecahydro-1H-cyclopenta[a]chrysen-9-yl)cyclohex-3-ene-1-carboxylic acid], for which the EC50 in assay [1], in assay [2], in assay [3] and in assay [4] was less than 50 nM each time.
In the case of `C=C(C)[C@@H]1CC[C@]2(NCCN3CCS(=O)(=O)CC3)CC[C@]3(C)[C@H](CC[C@@H]4[C@@]5(C)CC=C(C6=CC[C@@](COc7ccccn7)(C(=O)O)CC6)C(C)(C)[C@@H]5CC[C@]43C)[C@@H]12` [Example 31, (S)-4-((1R,3aS,5aR,5bR,7aR,11aS,11bR,13aR,13bR)-3a-((2-(1,1-dioxidothiomorpholino)ethyl)amino)-5a,5b,8,8,11a-pentamethyl-1-(prop-1-en-2-yl)-2,3,3a,4,5,5a,5b,6,7,7a,8,11,11a,11 b,12,13,13a,13b-octadecahydro-1H-cyclopenta[a]chrysen-9-yl)-1-((pyridin-2-yloxy)methyl)cyclohex-3-ene-1-carboxylic acid], the EC50 in assay [1] worked out at 2 nM; in assay [2] it was 9 nM; in assay [3], 6 nM; in assay [4], 9 nM.
Take `C=C(C)[C@@H]1CC[C@]2(NCCN3CCS(=O)(=O)CC3)CC[C@]3(C)[C@H](CC[C@@H]4[C@@]5(C)CC=C(C6=CC[C@@](COc7cnccn7)(C(=O)O)CC6)C(C)(C)[C@@H]5CC[C@]43C)[C@@H]12` [Example 32, (S)-4-((1R,3aS,5aR,5bR,7aR,11aS,11bR,13aR,13bR)-3a-((2-(1,1-dioxidothiomorpholino)ethyl)amino)-5a,5b,8,8,11a-pentamethyl-1-(prop-1-en-2-yl)-2,3,3a,4,5,5a,5b,6,7,7a,8,11,11a,11b,12,13,13a,13b-octadecahydro-1H-cyclopentatalchrysen-9-yl)-1-((pyrazin-2-yloxy)methyl)cyclohex-3-ene-1-carboxylic acid]: the EC50 in assay [1], in assay [2], in assay [3] and in assay [4] was less than 50 nM throughout.
As to `C=C(C)[C@@H]1CC[C@]2(NCCC3(O)CCS(=O)(=O)CC3)CC[C@]3(C)[C@H](CC[C@@H]4[C@@]5(C)CC=C(C6=CCC(COc7ccccn7)(C(=O)O)CC6)C(C)(C)[C@@H]5CC[C@]43C)[C@@H]12` (stereo partly drawn) [Example 33, 4-((1R,3aS,5aR,5bR,7aR,11aS,11bR,13aR,13bR)-3a-((2-(4-hydroxy-1,1-dioxidotetrahydro-2H-thiopyran-4-yl)ethyl)amino)-5a,5b,8,8,11a-pentamethyl-1-(prop-1-en-2-yl)-2,3,3a,4,5,5a,5b,6,7,7a,8,11,11a,11b,12,13,13a,13b-octadecahydro-1H-cyclopenta[a]chrysen-9-yl)-1-((pyridin-2-yloxy)methyl)cyclohex-3-ene-1-carboxylic acid], the EC50 in assay [1] was 5 nM; in assay [2], less than 50 nM; in assay [3], 16 nM; in assay [4] it was less than 50 nM.
For `C=C(C)[C@@H]1CC[C@]2(NCCN3CCS(=O)(=O)CC3)CC[C@]3(C)[C@H](CC[C@@H]4[C@@]5(C)CC=C(C6=CCC(COc7ncccn7)(C(=O)O)CC6)C(C)(C)[C@@H]5CC[C@]43C)[C@@H]12` (some centres unmarked) [Example 34], the EC50 in assay [1] was 2 nM; in assay [2] it was 13 nM; in assay [3], less than 50 nM; in assay [4] it was 13 nM.
On to `C=C(C)[C@@H]1CC[C@]2(NCCN3CCS(=O)(=O)CC3)CC[C@]3(C)[C@H](CC[C@@H]4[C@@]5(C)CC=C(C6=CCC(COc7nccc8ccc(OC)cc78)(C(=O)O)CC6)C(C)(C)[C@@H]5CC[C@]43C)[C@@H]12` (stereo partly drawn) [Example 35, 4-((1R,3aS,5aR,5bR,7aR,11aS,11bR,13aR,13bR)-3a-((2-(1,1-dioxidothiomorpholino)ethyl)amino)-5a,5b,8,8,11a-pentamethyl-1-(prop-1-en-2-yl)-2,3,3a,4,5,5a,5b,6,7,7a,8,11,11a,11 b,12,13,13a,13b-octadecahydro-1H-cyclopenta[a]chrysen-9-yl)-1-(((7-methoxyisoquinolin-1-yl)oxy)methyl)cyclohex-3-ene-1-carboxylic acid], for which the EC50 was 7 nM in assay [1], greater than 50 nM in assay [2], 24 nM in assay [3] and greater than 50 nM in assay [4].
Regarding `C=C(C)[C@@H]1CC[C@]2(NCCN3CCS(=O)(=O)CC3)CC[C@]3(C)[C@H](CC[C@@H]4[C@@]5(C)CC=C(C6=CCC(COc7ncccc7C#N)(C(=O)O)CC6)C(C)(C)[C@@H]5CC[C@]43C)[C@@H]12` (stereo partly drawn) [Example 36, 1-(((3-cyanopyridin-2-yl)oxy)methyl)-4-((1R,3aS,5aR,5bR,7aR,11aS,11bR,13aR,13bR)-3a-((2-(1,1-dioxidothiomorpholino)ethyl)amino)-5a,5b,8,8,11a-pentamethyl-1-(prop-1-en-2-yl)-2,3,3a,4,5,5a,5b,6,7,7a,8,11,11a,11b,12,13,13a,13b-octadecahydro-1H-cyclopenta[a]chrysen-9-yl)cyclohex-3-ene-1-carboxylic acid], the EC50 in assay [1] came out at 3 nM; in assay [2], 11 nM; in assay [3], 5 nM; in assay [4] it was 11 nM.
For the compound `C=C(C)[C@@H]1CC[C@]2(NCCN3CCS(=O)(=O)CC3)CC[C@]3(C)[C@H](CC[C@@H]4[C@@]5(C)CC=C(C6=CCC(COc7cc(C#N)ccn7)(C(=O)O)CC6)C(C)(C)[C@@H]5CC[C@]43C)[C@@H]12` (stereo partly drawn) [Example 37, 1-(((4-cyanopyridin-2-yl)oxy)methyl)-4-((1R,3aS,5aR,5bR,7aR,11aS,11bR,13aR,13bR)-3a-((2-(1,1-dioxidothiomorpholino)ethyl)amino)-5a,5b,8,8,11a-pentamethyl-1-(prop-1-en-2-yl)-2,3,3a,4,5,5a,5b,6,7,7a,8,11,11a,11b,12,13,13a,13b-octadecahydro-1H-cyclopenta[a]chrysen-9-yl)cyclohex-3-ene-1-carboxylic acid], the EC50 in assay [1] was less than 50 nM; in assay [2] it was greater than 50 nM; in assay [3], greater than 50 nM; in assay [4], greater than 50 nM.
Consider `C=C(C)[C@@H]1CC[C@]2(NCCN3CCS(=O)(=O)CC3)CC[C@]3(C)[C@H](CC[C@@H]4[C@@]5(C)CC=C(C6=CCC(COc7ccc(C#N)cn7)(C(=O)O)CC6)C(C)(C)[C@@H]5CC[C@]43C)[C@@H]12` (stereo partly drawn) [Example 38, 1-(((5-cyanopyridin-2-yl)oxy)methyl)-4-((1R,3aS,5aR,5bR,7aR,11aS,11bR,13aR,13bR)-3a-((2-(1,1-dioxidothiomorpholino)ethyl)amino)-5a,5b,8,8,11a-pentamethyl-1-(prop-1-en-2-yl)-2,3,3a,4,5,5a,5b,6,7,7a,8,11,11a,11b,12,13,13a,13b-octadecahydro-1H-cyclopenta[a]chrysen-9-yl)cyclohex-3-ene-1-carboxylic acid], for which the EC50 came out at 2 nM in assay [1], 232 nM in assay [2], 29 nM in assay [3] and 232 nM in assay [4].

For the origin of these results see patent publication US10421774B2 (priority 2016, dated 2019).
